Experimental data from patent publication US20110178110A1, “Genotype and Expression Analysis for Use in Predicting Outcome and Therapy Selection” (University of Southern California, priority 2008, published 2011).

Key:
stage II colon cancer = assay: Tumor recurrence in stage II colon cancer patients treated with 5-FU based adjuvant chemotherapy; assay type: in vivo, human
Experimental: Methods: Blood specimens from 107 patients (median age of 60 years; range: 22-86) were obtained at the University of Southern California medical facilities. All patients were diagnosed with high-risk, lymph node negative, stage II colon cancer and were uniformly treated with 5-FU based adjuvant chemotherapy. The median follow-up was 4.8 years (range: 0.3-16.8). […] Genomic DNA was extracted from peripheral blood and genotypes were determined using PCR-RFLP.

[1] = tested on: metastatic adenocarcinoma of the colon or rectum; conditions: individuals with serum LDH more than 1.5 times the upper limit of normal; interim data; cited from earlier work

SMILES	Probability ± SE of 3-year recurrence (stage II colon cancer)	Median time to recurrence (TTR) (95% CI) (stage II colon cancer; by adjuvant therapy)	clinical benefit when PTK/ZK was added to FOLFOX4, compared to FOLFOX4 plus placebo [1]
O=c1[nH]cc(F)c(=O)[nH]1 [5-FU, Fluorouracil]	0.29 ± 0.06	9.4 (4.8, 16.8+) yrs	
Clc1ccc(Nc2nnc(Cc3ccncc3)c3ccccc23)cc1.O=C(O)CCC(=O)O [PTK/ZK, 1-[4-Chloroanilino]-4-[4-pyridylmethyl]phthalazine Succinate]			greater clinical benefit
